# Tested on: PC-3 cells
# Assay: MTT assay in PC-3 cells, 24 hr incubation
# Assay type: cell-based
# Settings: Homo sapiens, NCs of similar sizes (~100 nm)
# Description: Characterization and Evaluation of Ptxl-PLA NC: NC sizes were characterized by a ZetaPALS dynamic light scattering detector (Brookhaven Instruments, Holtsville, N.Y., USA) or by SEM. The resulting NCs were purified by ultrafiltration; their in vitro toxicities were then evaluated using MTT assay in PC-3 cells (24 hr incubation at 37 C). To determine the release kinetics of Ptxl-PLA, a PBS solution of NCs was equally divided into several portions and then incubated at 37 C. At scheduled time, the release study was terminated. DMF solution was added to dissolve all precipitation. All the samples were then dried, re-dissolved in DCM and reacted with Bu4NBH4 for 1.5 hours. A drop of acetic acid was added into the solution. The solution was stirred for 20 min before the solvent was evaporated. The residual solid was reconstituted in acetonitrile for RP HPLC analysis (Curosil, 250×4.6 mm, 5μ; Phenomenex, Torrence, Calif., USA).
# PC-3 cells were plated in a 96-well plate for 24 h (10,000 cells per well). On the day of experiments, cells were washed with prewarmed PBS and different concentration of fresh prepared NCs (prepared in 1×PBS) was added. The control cells were incubated with medium. […] The resulting crystals were dissolved and final cell viability was assessed colorimetrically by microplate reader at 655 nm. […]
compound,measurement,value
"CC(=O)O[C@H]1C(=O)[C@@]2(C)[C@H]([C@H](OC(=O)c3ccccc3)[C@]3(O)C[C@H](OC(=O)[C@H](O)[C@@H](NC(=O)c4ccccc4)c4ccccc4)C(C)=C1C3(C)C)[C@]1(OC(C)=O)CO[C@@H]1C[C@@H]2O [Ptxl, paclitaxel]",IC50,87 nM
